# Where two headings read alike, the source gives them in different places.
# Tests used:
# [1] = system: E. coli; conditions: cited from earlier work
# [2] = system: Escherichia coli AG100, AG112 and derived fluoroquinolone-resistant mutants with ΔacrAB; experiment: MIC by broth microdilution, AcrAB-deleted strains; assay type: cell-based; conditions: for MIC: Escherichia coli; for Ofx MIC: AcrAB knocked out
# Procedure: (§1) Susceptibility testing. MICs of selected antimicrobial agents were determined by a standard broth microdilution procedure with cation-adjusted Mueller-Hinton broth (Becton Dickinson, Cockeysville, Md.) and an inoculum of 5×10^5 CFU/ml according to NCCLS performance and interpretive guidelines (NCCLS. 1997. Methods for dilution antimicrobial susceptibility. Tests for bacteria that grow aerobically—Fourth Edition; Approved Standard. NCCLS document M7-A4 (ISBN 1-56238-309-4). NCCLS, 940 West Valley Road, Suite 1400, Wayne, Pa. 19087). Antimicrobial agents on the commercially available microtiter plates (Merlin Diagnostics GmbH, Bornheim, Germany) included the FQs ciprofloxacin (CIP), enoxacin, fleroxacin, nor-flo-xacin, ofloxacin (OFL), pefloxacin, sparfloxacin (SPX), and trovafloxacin (TVA). They also included tetracycline (TET), chloramphenicol (CML), trimethoprim (TMP), cefoxitin (CFOX), cefaclor, cefixim and loracarbef. MICs of bile salts were determined by a broth macrodilution procedure: sodium cholate and sodium deoxycholate were serially diluted twofold in LB broth and tubes inoculated at 5×10^5 CFU/ml. MICs of both antibiotics and bile salts were determined twice in independent experiments with reproducible results.
# P1 transduction. […] DNA sequencing.
# [3] = system: Escherichia coli K-12 AG100, its Mar mutant AG112 and derived fluoroquinolone-resistant mutants (acrAB+); experiment: MIC by broth microdilution, acrAB+ strains; assay type: cell-based; conditions: for MIC: Escherichia coli; for Ofx MIC: with AcrAB
# Procedure: Selection of fluoroquinolone-resistant mutants. 1-AG100, 2°-AG100, 3*-AG100, 4*-AG100 and 1′-AG112, 2′-AG112, 3′-AG112 were sequential step mutants derived from AG 100 and AG112, respectively, on solid media. For each step, about 10^11 cells of an overnight culture were plated on several LB agar plates supplemented with increasing concentrations of OFL. Single colonies were further purified on OFL-supplemented agar plates. Mutant 2°-AG100 came out of one series, while mutants 3*- and 4*-AG100 came from a second series.
# as §1
# [4] = system: Escherichia coli K-12 AG100, its Mar mutant AG112 and derived fluoroquinolone-resistant mutants (acrAB+); experiment: MIC by broth microdilution, acrAB+ strains; assay type: cell-based
# [5] = strain 1-AG112 (1′-AG112), ΔacrAB
# [6] = strain 2-AG100 (2°-AG100), ΔacrAB
# [7] = strain 2-AG112 (2′-AG112), ΔacrAB
# [8] = strain 3-AG112 (3′-AG112), ΔacrAB
# [9] = strain 1-AG100, acrAB+, read-out: MIC
# [10] = strain 1-AG112 (1′-AG112), acrAB+, read-out: MIC
# [11] = strain 2-AG100 (2°-AG100), acrAB+, read-out: MIC
# [12] = strain 2-AG112 (2′-AG112), acrAB+, read-out: MIC
# [13] = strain 3*-AG100, acrAB+, read-out: MIC
# [14] = strain 3-AG112 (3′-AG112), acrAB+, read-out: MIC
# [15] = strain 4*-AG100, acrAB+, read-out: MIC
# [16] = strain AG100, acrAB+, read-out: MIC
# [17] = strain AG112 (Mar mutant), acrAB+
smiles,measurement,setting,value
Oc1cc(Cl)ccc1Oc1ccc(Cl)cc1Cl [triclosan],Reduction of resistance to triclosan,"[1]; deletion of acrAB, all strains",10 fold
same,Increase of resistance to triclosan,[1]; mutation in enoyl reductase (fabI),about 100 fold
same,Increase of resistance to triclosan,"[1]; overexpression of acrAB, marA, or soxS",about two-fold
"C[C@@H]1CN(c2c(F)c(N)c3c(=O)c(C(=O)O)cn(C4CC4)c3c2F)C[C@H](C)N1 [SPX, sparfloxacin]",MIC,"[2]; all ΔacrAB mutants, below detection",< 0.015 µg/mL
same,MIC,"[2]; strain 1-AG100, ΔacrAB",≤ 0.015 µg/mL
same,MIC,[2]; [5],≤ 0.015 µg/mL
same,MIC,[2]; [6],≤ 0.015 µg/mL
same,MIC,[2]; [7],≤ 0.015 µg/mL
same,MIC,"[2]; strain 3*-AG100, ΔacrAB",≤ 0.015 µg/mL
same,MIC,[2]; [8],≤ 0.015 µg/mL
same,MIC,"[2]; strain 4*-AG100, ΔacrAB",≤ 0.015 µg/mL
same,MIC,"[2]; strain AG100, ΔacrAB",≤ 0.015 µg/mL
same,MIC,"[2]; strain AG112, ΔacrAB",≤ 0.015 µg/mL
same,MIC,[3]; [9],0.125 µg/mL
same,MIC,[3]; [10],0.25 µg/mL
same,MIC,[3]; [11],0.25 µg/mL
same,MIC,[3]; [12],1 µg/mL
same,MIC,[3]; [13],0.5 µg/mL
same,MIC,[3]; [14],2 µg/mL
same,MIC,[3]; [15],2 µg/mL
same,MIC,[3]; [16],≤ 0.015 µg/mL
same,MIC,[3]; [17],0.06 µg/mL
"CO[C@@]1(NC(=O)Cc2cccs2)C(=O)N2C(C(=O)O)=C(COC(N)=O)CS[C@@H]21 [CFOX, cefoxitin]",MIC,"[2]; strain 1-AG100, ΔacrAB",0.5 µg/mL
same,MIC,[2]; [5],1 µg/mL
same,MIC,[2]; [6],0.5 µg/mL
same,MIC,[2]; [7],0.5 µg/mL
same,MIC,"[2]; strain 3*-AG100, ΔacrAB",0.5 µg/mL
same,MIC,[2]; [8],0.5 µg/mL
same,MIC,"[2]; strain 4*-AG100, ΔacrAB",1 µg/mL
same,MIC,"[2]; strain AG100, ΔacrAB",0.5 µg/mL
same,MIC,"[2]; strain AG112, ΔacrAB",1 µg/mL
same,MIC,[3]; [9],4 µg/mL
same,MIC,[3]; [10],16 µg/mL
same,MIC,[3]; [11],16 µg/mL
same,MIC,[3]; [12],32 µg/mL
same,MIC,[3]; [13],32 µg/mL
same,MIC,[3]; [14],64 µg/mL
same,MIC,[3]; [15],32 µg/mL
same,MIC,[3]; [16],4 µg/mL
same,MIC,[3]; [17],32 µg/mL
"CC1COc2c(N3CCN(C)CC3)c(F)cc3c(=O)c(C(=O)O)cn1c23 (stereo not drawn) [OFL, ofloxacin]",Enhancement of ofx resistance by in-vitro amplification,"[4]; AG102, three steps, 0.125 mg/l to 8 mg/l",64 fold
same,Ofx MIC,"[4]; AG102 series, 1st step mutant, with AcrAB",1.0 µg/mL
same,Ofx MIC,"[2]; AG100 series, 1st step mutant",0.06 µg/mL
same,Ofx MIC,"[2]; AG100 series, 2nd step mutant",0.06 µg/mL
same,Ofx MIC,"[2]; AG100 series, 3rd step mutant",0.06 µg/mL
same,Ofx MIC,"[2]; AG100 series, 4th step mutant",0.125 µg/mL
same,Ofx MIC,"[2]; AG100 series, parent",< 0.015 µg/mL
same,Ofx MIC,"[2]; AG102 series, 1st step mutant",0.06 µg/mL
same,Ofx MIC,"[2]; AG102 series, 2nd step mutant",0.06 µg/mL
same,Ofx MIC,"[2]; AG102 series, 3rd step mutant",0.06 µg/mL
same,Ofx MIC,"[2]; AG102 series, parent",< 0.015 µg/mL
same,MIC,"[2]; strain 1-AG100, ΔacrAB",0.06 µg/mL
same,MIC,[2]; [5],0.06 µg/mL
same,MIC,[2]; [6],0.06 µg/mL
same,MIC,[2]; [7],0.06 µg/mL
same,MIC,"[2]; strain 3*-AG100, ΔacrAB",0.06 µg/mL
same,MIC,[2]; [8],0.06 µg/mL
same,MIC,"[2]; strain 4*-AG100, ΔacrAB",0.125 µg/mL
same,MIC,"[2]; strain AG100, ΔacrAB",≤ 0.015 µg/mL
same,MIC,"[2]; strain AG112, ΔacrAB",≤ 0.015 µg/mL
same,Enhancement of ofx resistance by in-vitro amplification,"[3]; AG100, four steps, 0.03 mg/l to 4 mg/l",128 fold
same,Ofx MIC,"[3]; AG100 series, 1st step mutant",0.25 µg/mL
same,Ofx MIC,"[3]; AG100 series, 2nd step mutant",1.0 µg/mL
same,Ofx MIC,"[3]; AG100 series, 3rd step mutant",2.0 µg/mL
same,Ofx MIC,"[3]; AG100 series, 4th step mutant",4.0 µg/mL
same,Ofx MIC,"[3]; AG100 series, parent",0.03 µg/mL
same,Ofx MIC,"[3]; AG102 series, 2nd step mutant",4.0 µg/mL
same,Ofx MIC,"[3]; AG102 series, 3rd step mutant",8.0 µg/mL
same,Ofx MIC,"[3]; AG102 series, parent (Mar mutant)",0.125 µg/mL
same,MIC,[3]; [9],0.25 µg/mL
same,MIC,[3]; [10],1 µg/mL
same,MIC,[3]; [11],1 µg/mL
same,MIC,[3]; [12],4 µg/mL
same,MIC,[3]; [13],2 µg/mL
same,MIC,[3]; [14],8 µg/mL
same,MIC,[3]; [15],4 µg/mL
same,MIC,[3]; [16],0.03 µg/mL
same,MIC,[3]; [17],0.125 µg/mL
same,Fold increase of OFL MIC,"[3]; strain 1-AG100, as compared to AG100 (wild-type)",8 fold
same,Fold increase of OFL MIC,"[3]; strain 1-AG112 (1′-AG112), as compared to AG100 (wild-type)",32 fold
same,Fold increase of OFL MIC,"[3]; strain 2-AG100 (2°-AG100), as compared to AG100 (wild-type)",32 fold
same,Fold increase of OFL MIC,"[3]; strain 2-AG112, as compared to AG100 (wild-type)",128 fold
same,Fold increase of OFL MIC,"[3]; strain 3*-AG100, as compared to AG100 (wild-type)",64 fold
same,Fold increase of OFL MIC,"[3]; strain 3-AG112, as compared to AG100 (wild-type)",256 fold
same,Fold increase of OFL MIC,"[3]; strain 4*-AG100, as compared to AG100 (wild-type)",128 fold
same,Fold increase of OFL MIC,"[3]; strain AG112, as compared to AG100 (wild-type)",4 fold
same,Increase of resistance to OFL by the first mutation step,[3]; {},8 fold
"O=C(N[C@H](CO)[C@H](O)c1ccc([N+](=O)[O-])cc1)C(Cl)Cl [CML, chloramphenicol]",MIC,"[2]; strain 1-AG100, ΔacrAB",1 µg/mL
same,MIC,[2]; [5],1 µg/mL
same,MIC,[2]; [6],1 µg/mL
same,MIC,[2]; [7],1 µg/mL
same,MIC,"[2]; strain 3*-AG100, ΔacrAB",1 µg/mL
same,MIC,[2]; [8],1 µg/mL
same,MIC,"[2]; strain 4*-AG100, ΔacrAB",1 µg/mL
same,MIC,"[2]; strain AG100, ΔacrAB",1 µg/mL
same,MIC,"[2]; strain AG112, ΔacrAB",1 µg/mL
same,MIC,[3]; [9],4 µg/mL
same,MIC,[3]; [10],32 µg/mL
same,MIC,[3]; [11],16 µg/mL
same,MIC,[3]; [12],64 µg/mL
same,MIC,[3]; [13],32 µg/mL
same,MIC,[3]; [14],64 µg/mL
same,MIC,[3]; [15],64 µg/mL
same,MIC,[3]; [16],4 µg/mL
same,MIC,[3]; [17],16 µg/mL
"N[C@@H]1[C@H]2CN(c3nc4c(cc3F)c(=O)c(C(=O)O)cn4-c3ccc(F)cc3F)C[C@@H]12 [TVA, trovafloxacin]",MIC,"[2]; strain 1-AG100, ΔacrAB",0.06 µg/mL
same,MIC,[2]; [5],0.06 µg/mL
same,MIC,[2]; [6],0.06 µg/mL
same,MIC,[2]; [7],0.06 µg/mL
same,MIC,"[2]; strain 3*-AG100, ΔacrAB",0.06 µg/mL
same,MIC,[2]; [8],0.06 µg/mL
same,MIC,"[2]; strain 4*-AG100, ΔacrAB",0.125 µg/mL
same,MIC,"[2]; strain AG100, ΔacrAB",≤ 0.03 µg/mL
same,MIC,"[2]; strain AG112, ΔacrAB",≤ 0.03 µg/mL
same,MIC,[3]; [9],0.25 µg/mL
same,MIC,[3]; [10],0.5 µg/mL
same,MIC,"[3]; strain 2-AG100 (2°-AG100), acrAB+",0.25 µg/mL
same,MIC,[3]; [12],1 µg/mL
same,MIC,[3]; [13],0.5 µg/mL
same,MIC,[3]; [14],2 µg/mL
same,MIC,[3]; [15],2 µg/mL
same,MIC,[3]; [16],0.06 µg/mL
same,MIC,[3]; [17],0.125 µg/mL
"CN(C)[C@@H]1C(O)=C(C(N)=O)C(=O)[C@@]2(O)C(O)=C3C(=O)c4c(O)cccc4[C@@](C)(O)[C@H]3C[C@@H]12 [TET, tetracycline]",MIC,"[2]; strain 1-AG100, ΔacrAB",1 µg/mL
same,MIC,[2]; [5],0.5 µg/mL
same,MIC,[2]; [6],0.5 µg/mL
same,MIC,[2]; [7],1 µg/mL
same,MIC,"[2]; strain 3*-AG100, ΔacrAB",1 µg/mL
same,MIC,[2]; [8],0.5 µg/mL
same,MIC,"[2]; strain 4*-AG100, ΔacrAB",1 µg/mL
same,MIC,"[2]; strain AG100, ΔacrAB",0.5 µg/mL
same,MIC,"[2]; strain AG112, ΔacrAB",1 µg/mL
same,MIC,[3]; [9],2 µg/mL
same,MIC,[3]; [10],4 µg/mL
same,MIC,[3]; [11],2 µg/mL
same,MIC,[3]; [12],16 µg/mL
same,MIC,[3]; [13],8 µg/mL
same,MIC,[3]; [14],8 µg/mL
same,MIC,[3]; [15],8 µg/mL
same,MIC,[3]; [16],1 µg/mL
same,MIC,[3]; [17],4 µg/mL

# From patent US8012711B2, “Methods of screening for compounds that reduce microbial resistance to fluoroquinolones” (priority 1999, dated 2011)
